In paper PMC11295118, “Harnessing the Intrinsic Chemical Reactivity of the Mycotoxin Patulin for Immunosensing” (Analytical Chemistry, 2024):
Where a name gives a salt, the structure may show the parent alone.

System: monoclonal antibodies raised against BSA–Ia
Assay: Specificity of the monoclonal antibodies by competitive ELISA
Type: binding, mice
Details: for recognition by the antibodies: competitors tested separately (without derivatization)
Description: The high affinity of the rabbit antisera for patulin after its transformation into adduct I motivated us to pursue the production of monoclonal antibodies (mAbs), given their high value in industry for the development of rapid commercial assays. To this end, standard hybridoma technology was employed with splenocytes from mice immunized with the bioconjugate BSA–Ia, the immunogen that elicited the best response in rabbits (Supporting Information). From two independent cell fusion experiments, three antibody-producing hybridomas capable of recognizing adduct I were generated. Following affinity purification, the mAbs were characterized by direct and indirect competitive ELISA using the homologous and the heterologous conjugate, i.e., based on hapten Ia or Ib, respectively. As summarized in Table S2, the three antibodies successfully recognized both coating conjugates (OVA–Ia and OVA–Ib), yielding IC50 values for patulin below 7.0 nM. […] In the direct competitive format, even better IC50 values were found with mAbs #13 and #17 when used with the homologous enzyme tracer HRP–Ia (IC50 = 0.7–0.8 nM). […]
dissolved in 8‐10 mL of 20 mM phosphate buffer, pH 7.4, and filtered through a nitrocellulose membrane (0.45 μm pore diameter). The resulting filtrate was purified by affinity chromatography with a 5 mL HiTrap Protein G HP column, and the antibody‐containing fractions were gathered and the buffer was exchanged to 20 mM phosphate buffer, pH 7.4, using Amicon Ultra 4 10k centrifugal devices. Final antibody concentration was calculated using the absorption at 280 nm and a molar extinction coefficient of 1.4 L g‐1 c m ‐1. The purified antibodies were precipitated with 1 volume of saturated ammonium sulphate for long‐term storage at 4 °C. […]
Antibody‐coated direct competitive ELISA. […] Following incubation during 10 min at rt, the reaction was stopped by adding 100 µL per well of 1 M H2SO4, and the absorbance was […]
Following incubation during 10 min at rt, the reaction was stopped by adding 100 µL per well of 1 M H2SO4, and the absorbance was immediately read. […]

For [Na][S]c1ccccc1[S][Na] [7a, sodium salt of benzene-1,2-dithiol], which “recognition by the antibodies” value is on record?
The value was “did not recognize”.

O=C/C(CC(=O)O)=C1\Sc2ccccc2S[C@H]1CO [adduct I] was tested. Which “inhibition curves compared with patulin after reacting with 7a” value (adduct I or derivatized patulin used as competitors) did it give?
The value was “overlapped”.

With O=C1C=C2C(=CCOC2O)O1 (stereo not drawn) [patulin] as the molecule, how does the “recognition by the antibodies” value read?
Its value is “did not recognize”.
